From PMC8138313, “Identification, Selection and Immune Assessment of Liver Stage CD8 T Cell Epitopes From Plasmodium falciparum” (Frontiers in Immunology, 2021)
Where a SMILES comes first, the peptide text is derived from it.

Legend:
Test in all cases: HLA class I binding assay (cell-free competition, fluorescence polarization)
HLA A*0201 = HLA A*0201 (Homo sapiens, UniProt P04439, D140Y/D185E/D98H/E176V/E277Q/G131W/G231S/I119V/I121R/I166T/I218V/L300P/L318F/N151K/N90K/P208A/P217A/Q86G/Q94H/R138H/R169H/T345S)
HLA B*0702 = HLA B*0702 (Homo sapiens, UniProt P01889)
HLA A*2402 = HLA A*2402 (Homo sapiens, UniProt P04439, D101N/D140Y/D185E/E176V/E190D/F33S/G103R/G107R/I119L/I121M/I306V/K335N/L105A/L180Q/L300P/N151K/N90K/Q86E/Q94H/R106L/R138H/R89G/T104I/T345S/V100E/W191G/Y123F)
HLA B*4402 = HLA B*4402 (Homo sapiens, UniProt P01889, A223V/A65T/A93T/A95T/D201E/D98Y/E176V/E187L/E204Q/E69K/G107R/H137Y/K202T/L105A/L119I/N104T/N87E/Q56L/Q94N/R106L/R155S/R180D/S101N/S121R/S35A/S48T/T118I/V36M/W191S/Y140D/Y91S)
HLA A*0301 = HLA A*0301 (Homo sapiens, UniProt P04439)

CC[C@H](C)[C@H](NC(=O)[C@H](CC(N)=O)NC(=O)[C@H](CCCCN)NC(=O)[C@H](CCCCN)NC(=O)[C@H](CCCCN)NC(=O)[C@H](CC(C)C)NC(=O)[C@@H](N)Cc1ccccc1)C(=O)N[C@H](C(=O)N[C@@H](CC(C)C)C(=O)O)[C@@H](C)O (H-FLKKKNITL-OH)
IC50 (HLA A*0201): 5.34 µM | IC50 (HLA B*0702): 25.4 µM

CC(C)C[C@H](NC(=O)[C@H](Cc1ccccc1)NC(=O)[C@@H]1CCCN1C(=O)[C@@H](N)Cc1c[nH]cn1)C(=O)N[C@@H](CCCCN)C(=O)N[C@@H](CO)C(=O)NCC(=O)N[C@@H](Cc1ccccc1)C(=O)N[C@H](C(=O)N[C@@H](Cc1ccccc1)C(=O)O)[C@@H](C)O (H-HPFLKSGFTF-OH)
IC50 (HLA A*2402): 10.5 µM | IC50 (HLA B*0702): 0.226 µM | IC50 (HLA B*4402): > 1000 µM

CC[C@H](C)[C@H](NC(=O)[C@H](CO)NC(=O)[C@H](CCCCN)NC(=O)[C@H](CO)NC(=O)[C@H](CC(N)=O)NC(=O)[C@@H](NC(=O)[C@H](CO)NC(=O)[C@H](Cc1ccc(O)cc1)NC(=O)[C@H](CC(C)C)NC(=O)[C@@H](N)CCCCN)[C@@H](C)CC)C(=O)O (H-KLYSINSKSI-OH)
IC50 (HLA A*0201): 57.7 µM | IC50 (HLA B*0702): 225 µM

CC[C@H](C)[C@H](NC(=O)[C@@H](N)CO)C(=O)N[C@@H](C)C(=O)N[C@@H](CO)C(=O)N[C@@H](CCCCN)C(=O)N[C@@H](CC(N)=O)C(=O)N[C@@H](CC(C)C)C(=O)N[C@@H](CCSC)C(=O)N[C@@H](Cc1c[nH]c2ccccc12)C(=O)N[C@H](C(=O)O)C(C)C (H-SIASKNLMWV-OH)
IC50 (HLA A*0201): 284 µM | IC50 (HLA A*0301): > 1000 µM | IC50 (HLA B*0702): > 1000 µM

N=C(N)NCCC[C@H](NC(=O)[C@H](Cc1ccc(O)cc1)NC(=O)[C@H](CCCCN)NC(=O)[C@@H]1CCCN1C(=O)[C@@H](N)Cc1c[nH]cn1)C(=O)N[C@@H](CC(N)=O)C(=O)N[C@@H](Cc1ccccc1)C(=O)N[C@@H](CCCCN)C(=O)N[C@@H](Cc1ccccc1)C(=O)O (H-HPKYRNFKF-OH)
IC50 (HLA B*0702): 0.336 µM

CC[C@H](C)[C@H](N)C(=O)N1CCC[C@H]1C(=O)N1CCC[C@H]1C(=O)N[C@@H](CCC(N)=O)C(=O)N[C@H](C(=O)N[C@@H](Cc1ccccc1)C(=O)N[C@@H](CC(=O)O)C(=O)N[C@@H](Cc1ccc(O)cc1)C(=O)N1CCC[C@H]1C(=O)N[C@H](C(=O)O)[C@@H](C)CC)C(C)C (H-IPPQVFDYPI-OH)
IC50 (HLA B*0702): 245 µM

CC[C@H](C)[C@H](NC(=O)[C@H](CC(N)=O)NC(=O)[C@@H](N)CCCNC(=N)N)C(=O)N[C@H](C(=O)N[C@@H](CO)C(=O)N[C@@H](CCCCN)C(=O)N[C@@H](Cc1c[nH]cn1)C(=O)N[C@H](C(=O)N[C@@H](CO)C(=O)N[C@H](C(=O)O)C(C)C)[C@@H](C)O)[C@@H](C)CC (H-RNIISKHTSV-OH)
IC50 (HLA B*0702): 505 µM

CSCC[C@H](NC(=O)[C@@H](NC(=O)[C@H](CC(=O)O)NC(=O)[C@H](Cc1c[nH]cn1)NC(=O)[C@@H]1CCCN1C(=O)[C@@H](N)CO)[C@@H](C)O)C(=O)N[C@@H](CCC(N)=O)C(=O)N[C@@H](CCCCN)C(=O)N[C@@H](CC(=O)O)C(=O)N[C@@H](CC(=O)O)C(=O)O (H-SPHDTMQKDD-OH; N-terminus assumed)
IC50 (HLA B*0702): > 1000 µM

CC[C@H](C)[C@H](NC(=O)[C@@H](N)[C@@H](C)O)C(=O)N[C@@H](Cc1ccc(O)cc1)C(=O)NCC(=O)N[C@@H](CCCCN)C(=O)NCC(=O)NCC(=O)N[C@@H](Cc1ccccc1)C(=O)N[C@@H](CCC(N)=O)C(=O)N[C@@H](Cc1ccccc1)C(=O)O (H-TIYGKGGFQF-OH)
IC50 (HLA B*0702): 109 µM

CC(C)C[C@H](NC(=O)[C@H](CC(=O)O)NC(=O)[C@H](CCCNC(=N)N)NC(=O)[C@H](CCCNC(=N)N)NC(=O)[C@H](CC(=O)O)NC(=O)[C@H](CO)NC(=O)[C@H](CC(N)=O)NC(=O)[C@H](CC(C)C)NC(=O)[C@@H](N)CC(C)C)C(=O)O (H-LLNSDRRDL-OH)
IC50 (HLA B*0702): 0.2 µM

CSCC[C@H](NC(=O)[C@H](CCC(=O)O)NC(=O)[C@@H](N)[C@@H](C)O)C(=O)N[C@@H](Cc1ccccc1)C(=O)N[C@@H](CCCCN)C(=O)N[C@@H](CC(C)C)C(=O)N[C@@H](CCCNC(=N)N)C(=O)N[C@@H](CC(C)C)C(=O)N[C@@H](CC(N)=O)C(=O)N[C@@H](CC(C)C)C(=O)O (H-TEMFKLRLNL-OH)
IC50 (HLA A*2402): 58.2 µM | IC50 (HLA B*0702): > 1000 µM | IC50 (HLA B*4402): 54.8 µM
